The values that follow come from patent US7759369B2, “Pyridine compounds for the treatment of prostaglandin mediated diseases” (Glaxo Group Limited, priority 2004, dated 2010).

Counter-ions that a name gives are not always drawn.

For one assay, the target named is T1, EP1 receptors (Homo sapiens, UniProt P34995).
T1 sequence (P34995 1-402): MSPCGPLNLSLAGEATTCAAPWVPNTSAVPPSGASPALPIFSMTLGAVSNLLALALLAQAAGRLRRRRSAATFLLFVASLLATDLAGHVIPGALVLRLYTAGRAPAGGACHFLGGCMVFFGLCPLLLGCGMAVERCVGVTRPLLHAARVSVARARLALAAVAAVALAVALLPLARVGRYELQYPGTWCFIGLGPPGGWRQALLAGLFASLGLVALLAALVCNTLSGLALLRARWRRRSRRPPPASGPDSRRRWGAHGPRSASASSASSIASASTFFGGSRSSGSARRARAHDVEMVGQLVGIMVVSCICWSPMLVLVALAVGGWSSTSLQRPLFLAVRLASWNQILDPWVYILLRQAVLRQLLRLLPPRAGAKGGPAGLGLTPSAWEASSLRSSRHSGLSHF
Put plainly: Binding assay for the human prostanoid EP1 receptor (competition with [3H]-PGE2). The settings on record: averages of a number of experiments; Example 3 as sodium salt; read-out: pIC50 value in the binding assay for the human prostanoid EP1 receptor (converted). Further details: expressed in transfected cells; host or cells: CHO-K1 (membrane fraction). The protocol: Binding Assay for the Human Prostanoid EP1 Receptor
Competition assay using [^3H]-PGE2.
Compound potencies are determined using a radioligand binding assay. In this assay compound potencies are determined from their ability to compete with tritiated prostaglandin E2 ([^3H]-PGE2) for binding to the human EP1 receptor.
This assay utilises Chinese hamster ovary-K1 (CHO-K1) cells into which a stable vector containing the EP1 cDNA has previously been transfected. Cells are cultured in suitable flasks containing culture medium such as DMEM:F-12 supplemented with 10% v/v foetal calf serum, 2 mM L-glutamine, 0.25 mg/ml geneticin, 10 μg/ml puromycin and 10 μM indomethacin.
Cells are detached from the culture flasks by incubation in calcium and magnesium free phosphate buffered saline containing 1 mM disodium ethylenediaminetetraacetic acid (Na2EDTA) and 10 μM indomethacin for 5 min. The cells are isolated by centrifugation at 250×g for 5 mins and suspended in an ice cold buffer such as 50 mM Tris, 1 mM Na2EDTA, 140 mM NaCl, 10 μM indomethacin (pH 7.4). The cells are homogenised using a Polytron tissue disrupter (2×10s burst at full setting), centrifuged at 48,000×g for 20 mins and the pellet containing the membrane fraction is washed (optional) three times by suspension and centrifugation at 48,000×g for 20 mins. The final membrane pellet is suspended in an assay buffer such as 10 mM 2-[N-morpholino]ethanesulphonic acid, 1 mM Na2EDTA, 10 mM MgCl2 (pH 6). Aliquots are frozen at −80° C. until required.
For the binding assay the cell membranes, competing compounds and [^3H]-PGE2 (3 nM final assay concentration) are incubated in a final volume of 100 μl for 30 min at 30° C. All reagents are prepared in assay buffer. Reactions are terminated by rapid vacuum filtration over GF/B filters using a Brandell cell harvester. The filters are washed with ice cold assay buffer, dried and the radioactivity retained on the filters is measured by liquid scintillation counting in Packard TopCount scintillation counter.
The data are analysed using non linear curve fitting techniques to determine the concentration of compound producing 50% inhibition of specific binding (IC50).

The next assay concerns the target T2, TP receptor (Homo sapiens, UniProt P21731).
T2 construct: expressed in transfected cells; host or cells: CHO-K1
T2 sequence (P21731 1-343): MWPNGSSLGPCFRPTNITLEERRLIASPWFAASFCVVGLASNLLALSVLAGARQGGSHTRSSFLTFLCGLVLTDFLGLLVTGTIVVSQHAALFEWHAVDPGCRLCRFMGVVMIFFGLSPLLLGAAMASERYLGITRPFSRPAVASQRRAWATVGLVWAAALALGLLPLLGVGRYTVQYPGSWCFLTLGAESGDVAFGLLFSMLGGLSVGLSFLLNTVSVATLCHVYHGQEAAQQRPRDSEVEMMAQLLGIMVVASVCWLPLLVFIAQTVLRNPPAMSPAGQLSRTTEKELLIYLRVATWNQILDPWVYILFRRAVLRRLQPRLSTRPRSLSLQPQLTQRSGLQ
Description: human TP calcium mobilisation assay (CHO-K1 cells, U46619, FLIPR). In kind it is cell-based. The note with it: free bases or sodium salts; read-out: functional pKi, human TP calcium mobilisation assay (converted). On the procedure: To determine if a compound has agonist or antagonist activity at the TP receptor a functional calcium mobilisation assay may be performed. Briefly, the antagonist properties of compounds are assessed by their ability to inhibit the mobilisation of intracellular calcium ([Ca^2+]i) in response to activation of TP receptors by the stable TXA2 mimetic U46619 (9,11-dideoxy-11α,9α-epoxy-methanoprostaglandin F2 α; commercially available from e.g Sigma-Aldrich). Increasing concentrations of antagonist reduce the amount of calcium that a given concentration of U46619 can mobilise. The net effect is to displace the U46619 concentration-effect curve. The amount of calcium produced is assessed using a calcium-sensitive fluorescent dye such as Fluo-4, AM and a suitable instrument such as a Fluorimetric Imaging Plate Reader (FLIPR). Increasing amounts of [Ca^2+]i produced by receptor activation increase the amount of fluorescence produced by the dye and give rise to an increasing signal. The signal may be detected using the FLIPR instrument and the data generated may be analysed with suitable curve-fitting software. The agonist activity of the compounds are determined by their ability to cause an increase in intracellular mobilisation in the absence of U46619.
The human TP calcium mobilisation assay utilises Chinese hamster ovary-K1 (CHO-K1) cells into which a stable (pCIN; BioTechniques 20 (1996): 102-110) vector containing TP cDNA has previously been transfected. Cells are cultured in suitable flasks containing culture medium such as DMEM:F-12 supplemented with 10% v/v foetal calf serum, 2 mM L-glutamine, 0.25 mg/ml geneticin, 100 μM flurbiprofen and 10 μg/ml puromycin.
For assay, cells are harvested using a proprietary reagent that dislodges cells such as Versene. Cells are re-suspended in a suitable quantity of fresh culture media for introduction into a 96-well plate. Following incubation for 24 hours at 37° C. the culture media is replaced with a medium containing Fluo-4 and the detergent pluronic acid, and a further incubation takes place. Concentrations of compounds are then added to the plate in order to construct concentration-effect curves. This may be performed on the FLIPR in order to assess the agonist properties of the compounds. Concentrations of U46619 are then added to the plate in order to assess the antagonist properties of the compounds.
The data so generated may be analysed by means of a computerised curve-fitting routine. The concentration of compound that elicits a half-maximal inhibition of the calcium mobilisation induced by U46619 (plC50) may then be estimated, and the percentage activation caused by the compounds directly can be used to determine if there is any agonism present.
(In general: Calcium assays in cells follow changes in intracellular calcium, usually with a dye or a luminescent sensor.)

In the case of `O=C(O)c1cccc(Cc2cc(Cl)ccc2OCc2ccc(Cl)cc2F)n1` [Example 3, Sodium 6-[(5-chloro-2-{[(4-chloro-2-fluorophenyl)methyl]oxy}phenyl)methyl]-2-pyridinecarboxylate], on EP1 receptors, the IC50 is no more than 31.6 nM. The Ki on TP receptor is no more than 31.6 nM.
On to `O=C(O)c1cccc(Cc2cc(Cl)ccc2OCc2ccc(F)cc2F)n1` [Example 4, Sodium 6-[(5-chloro-2-{[(2,4-difluorophenyl)methyl]oxy}phenyl)methyl]-2-pyridinecarboxylate], for which, on EP1 receptors, the IC50 is no more than 31.6 nM. At TP receptor, the Ki is less than 1000 nM.
For `O=C(O)c1cccc(Cc2cc(Cl)ccc2OCc2cc(F)c(F)cc2F)n1` [Example 10, Sodium 6-[(5-chloro-2-{[(2,4,5-trifluorophenyl)methyl]oxy}phenyl)methyl]-2-pyridinecarboxylate], the IC50 at EP1 receptors is no more than 31.6 nM. Further, the Ki at TP receptor is less than 1000 nM.
The corresponding values for `O=C(O)c1cccc(Cc2cc(Cl)ccc2OCc2ccc(F)cc2Cl)n1` [Example 11, Sodium 6-[(5-chloro-2-{[(2-chloro-4-fluorophenyl)methyl]oxy}phenyl)methyl]-2-pyridinecarboxylate] are no more than 31.6 nM and less than 1000 nM.
On the same counts, the results for `O=C(O)c1cccc(Cc2cc(Cl)ccc2OCc2ccc(Cl)cc2Cl)n1` [Example 12, Sodium 6-[(5-chloro-2-{[(2,4-dichlororophenyl)methyl]oxy}phenyl)methyl]-2-pyridinecarboxylate] are no more than 31.6 nM and no more than 31.6 nM.
On the same counts, the results for `O=C(O)c1cccc(Cc2cc(Cl)ccc2OCC2CCCC2)n1` [Example 14, Sodium 6-({5-chloro-2-[(cyclopentylmethyl)oxy]phenyl}methyl)-2-pyridinecarboxylate] are no more than 31.6 nM and less than 1000 nM.
Regarding `O=C(NS(=O)(=O)c1ccccc1)c1cccc(Cc2cc(Cl)ccc2OCc2ccc(Cl)cc2F)n1` [Example 28, 6-[(5-chloro-2-{[(4-chloro-2-fluorophenyl)methyl]oxy}phenyl)-methyl]-N-(phenylsulphonyl)-2-pyridinecarboxamide], the IC50 on EP1 receptors is no more than 31.6 nM. At TP receptor, the Ki was less than 1000 nM.
Take `CS(=O)(=O)NC(=O)c1cccc(Cc2cc(Cl)ccc2OCc2ccc(Cl)cc2F)n1` [Example 29, 6-[(5-Chloro-2-{[(4-chloro-2-fluorophenyl)methyl]oxy}-phenyl)methyl]-N-(methylsulphonyl)-2-pyridinecarboxamide]: the IC50 on EP1 receptors is no more than 31.6 nM. The Ki on TP receptor is greater than 1000 nM.
On the same counts, the results for `CCCS(=O)(=O)NC(=O)c1cccc(Cc2cc(Cl)ccc2OCc2ccc(Cl)cc2F)n1` [Example 30, 6-[(5-Chloro-2-{[(4-chloro-2-fluorophenyl)methyl]oxy}-phenyl)methyl]-N-(propylsulphonyl)-2-pyridinecarboxamide] are no more than 31.6 nM and less than 1000 nM.
On the same counts, the results for `O=C(NS(=O)(=O)c1ccc(Br)cc1)c1cccc(Cc2cc(Cl)ccc2OCc2ccc(Cl)cc2F)n1` [Example 33, N-[(4-Bromophenyl)sulphonyl]-6-[(5-chloro-2-{[(4-chloro-2-fluorophenyl)methyl]oxy}phenyl)-methyl]-2-pyridinecarboxamide] are no more than 31.6 nM and greater than 1000 nM.
On the same counts, the results for `O=C(NS(=O)(=O)c1cccc(Br)c1)c1cccc(Cc2cc(Cl)ccc2OCc2ccc(Cl)cc2F)n1` [Example 34, N-[(3-Bromophenyl)sulphonyl]-6-[(5-chloro-2-{[(4-chloro-2-fluorophenyl)methyl]oxy}phenyl)-methyl]-2-pyridinecarboxamide] are no more than 31.6 nM and no more than 31.6 nM.
As to `Cc1noc(C)c1S(=O)(=O)NC(=O)c1cccc(Cc2cc(Cl)ccc2OCc2ccc(Cl)cc2F)n1` [Example 36, 6-[(5-Chloro-2-{[(4-chloro-2-fluorophenyl)methyl]oxy}-phenyl)methyl]-N-[(3,5-dimethyl-4-isoxazolyl)sulphonyl]-2-pyridinecarboxamide], the IC50 at EP1 receptors is no more than 31.6 nM. Besides, the Ki at TP receptor was less than 1000 nM.
For the compound `Fc1cc(Cl)ccc1COc1ccc(Cl)cc1Cc1cccc(-c2nnn[nH]2)n1` [Example 38, 2-[(5-Chloro-2-{[(4-chloro-2-fluorophenyl)methyl]oxy}phenyl)-methyl]-6-(1H-tetrazol-5-yl)pyridine], the IC50 on EP1 receptors is no more than 31.6 nM. Further, the Ki at TP receptor was no more than 31.6 nM.
On to `Cc1ccc(C(=O)O)nc1Cc1cc(Cl)ccc1OCc1ccc(Cl)cc1F` [Example 39, 6-[(5-Chloro-2-{[(4-chloro-2-fluorophenyl)methyl]oxy}-phenyl)methyl]-5-methyl-2-pyridinecarboxylic acid, sodium salt], for which, on EP1 receptors, the IC50 is no more than 31.6 nM. The Ki at TP receptor is no more than 31.6 nM.
